Data on nine molecules can be found in the NIST ThermoML archive (doi:10.1021/acs.jced.6b00703).

For this series the following is noted: 101 kPa, Liquid, Drop weight.

Structures are written as SMILES. ± gives the expanded uncertainty stated by the source.

With `CCOCC` [diethyl ether] + O, the interfacial tension (293.15 K) is recorded as 9.03 ± 1 mN/m.

For `CC1CCCCC1` [methylcyclohexane] + O, the interfacial tension (293.15 K) turned out to be 51.4 ± 1.1 mN/m.

Consider `CCC(C)=O` [butanone] + O, for which the interfacial tension (292.15 K) worked out at 0.92 ± 1 mN/m.

Consider `CCOC(C)=O` [ethyl acetate] + O, for which the interfacial tension is, setting by setting: (283.15 K) 7.61 ± 1 mN/m; (289.15 K) 7.37 ± 1 mN/m; (293.15 K) 7.29 ± 1 mN/m; (303.15 K) 7.19 ± 1 mN/m; (313.15 K) 7.15 ± 1 mN/m; (323.15 K) 6.99 ± 1 mN/m.

`Cc1ccccc1` [toluene] + O: the interfacial tension (283.15 K) is recorded as 36.1 ± 1.1 mN/m; the interfacial tension (290.15 K) worked out at 35.8 ± 1.1 mN/m; the interfacial tension (293.15 K) amounted to 36.3 ± 1.1 mN/m; the interfacial tension (303.15 K) was found to be 36 ± 1.1 mN/m; the interfacial tension (313.15 K) is on record as 35.3 ± 1.1 mN/m; the interfacial tension (323.15 K) was 34 ± 1 mN/m.

In the case of `O=C1CCCCC1` [cyclohexanone] + O, the interfacial tension by setting is: (283.15 K) 4.78 ± 1 mN/m; (289.15 K) 4.43 ± 1 mN/m; (293.15 K) 4.87 ± 1 mN/m; (303.15 K) 5.08 ± 1 mN/m; (313.15 K) 5.05 ± 1 mN/m; (323.15 K) 4.71 ± 1 mN/m.

With `CCCCOC(C)=O` [butyl ethanoate] + O, the interfacial tension was 15.3 ± 1 mN/m (283.15 K); 14.9 ± 1 mN/m (289.15 K); 14.95 ± 1 mN/m (290.15 K); 15.3 ± 1 mN/m (293.15 K); 15.2 ± 1 mN/m (303.15 K); 15.1 ± 1 mN/m (313.15 K). For the same molecule, the interfacial tension (323.15 K) is on record as 14.3 ± 1 mN/m.

With `CCCCCCCCO` [octan-1-ol] + O, the interfacial tension (289.15 K) is listed as 9.1 ± 1 mN/m.

As for `OC1CCCCC1` [cyclohexanol] + O, the interfacial tension came out at 4.17 ± 1 mN/m (303.15 K), 4.15 ± 1 mN/m (313.15 K), 3.97 ± 1 mN/m (323.15 K) and 3.95 ± 1 mN/m (333.15 K).
